Data: paper PMC11359531, “Establishment of Dissolution Test Method for Multi-Components in Traditional Chinese Medicine Preparations Based on In Vitro–In Vivo Correlation” (Pharmaceuticals, 2024)
Converted amounts (≈) assume the structure as drawn. “And” between values parts separate entries of the source, which are not always exact repeats. Identical values can stand only once.

Columns and labels:
[1] = Dissolution test of Q-markers in YZTs, paddle method, and fitting of dissolution profiles; format: physicochemical; details: for Best-fitted dissolution model, Functions: YZTs, 75 rpm
Method: The dissolution of five Q-markers in YZTs was evaluated using the paddle method in accordance with the Chinese Pharmacopoeia. […] The dissolution tests were conducted at a temperature of 37 ± 0.5 °C and a paddle speed of 75 rpm. Add 6 tablets to each dissolving cup, accompanied by 900 mL of dissolving solution, in 6 parallel aliquots, and samples of 3 mL were collected at 15, 30, 45, 60, 90, 120, 180, 240, and 360 min, respectively. Taking into account the gastric emptying time, the end time of dissolution measurement was 180 min when taking 0.1 M of HCl as dissolution medium. The dissolution medium was replenished after each sampling. The samples were filtered through 0.22 μm membrane and analyzed using the HPLC method described in Section 3.2. The chromatographic results were processed to calculate the concentration of each component at different time points, and the dissolution results were calculated using Equation (3) as follows:(3) D=(CnV1+V2∑i=1n−1Cn−1)×100%/M
Cn is the drug concentration at time point n; V1 is the volume of dissolution medium in the dissolution cup; V2 is the volume of the sample removed at each time point; M is the total drug content.
The Phoenix WinNonlin IVIVC Toolkit provides Hill, Weibull, and Makoid Banakar functions to fit the average dissolution of each component in each dissolved medium. The best-fitting model was selected according to the highest correlation coefficient (R) and the smallest Akaike information criterion (AIC) value in the fitting results.
Hill:(4) Fdiss,vitro=Finf×t^b/MDT^b+t^b
Weibull:(5) Fdiss,vitro=Finf×(1−exp[−t−tlag/MDT]^b)
Makoid Banakar:(6) Fdiss,vitro=Fmax×(t/Tmax)^b×exp[b×(1−t/Tmax)] for t≤T_max (7) Fdiss,vitro=Fmax for t>Tmax where Fdiss,vitro is the fitting fraction dissolved at time t, Finf is the fraction dissolved at time infinity (fixed as 1), MDT is the average dissolution time (hours), Fmax is the maximum in vitro dissolution value, tlag is the lag time, Tmax is the time corresponding to the maximum in vitro dissolution value, and b is the shape parameters.

[2] = Stability of Q-markers in plasma; parameters: species or system dog; details: n = 6
Method: The standard solutions of tetrahydropalmatine, corydaline, protopin, α-allocryptopine, and byakangelicin were prepared by dissolving them in acetonitrile to obtain a mixed standard stock solution, which was further diluted with acetonitrile to prepare a series of different concentration gradient mixed standard solutions. An internal standard solution of 25 ng/mL was prepared from betamethasone solution (500 μg/mL) diluted with acetonitrile. Blank dog blood was collected through intravenous blood sampling, and plasma was obtained by centrifugation. To prepare the standard plasma sample, 25 μL of the mixed standard solution was added to 100 μL of blank plasma, and 400 μL of acetonitrile was added and vortexed for protein precipitation. The supernatant was acquired by centrifugation and blown dry with nitrogen. Then, 100 μL of acetonitrile was added to the dried supernatant, and the resulting solution was mixed to gain the standard plasma sample. Different mixed standard solution including a serial of concentrations of tetrahydropalmatine: 0.625–25 ng/mL, corydaline: 0.625–25 ng/mL, protopin: 0.1–4 ng/mL, α-allocryptopine: 0.1–4 ng/mL, byakangelicin: 18.75–750 ng/mL were applied to prepare standard plasma sample and quality control (QC) samples of plasma as follows: 1.25, 5, and 20 ng/mL for tetrahydropalmatine and corydaline, […], and 37.5, 150, and 600 ng/mL for byakangelicin.

[3] = Caco-2 transport assay (Peff); details: human
[4] = Unit impulse response (UIR) fitting of pharmacokinetic data; details: best-fitted UIR, Akaike model
Description: The Phoenix WinNonlin IVIVC tool was utilized to evaluate the relationship between in vivo drug dissolution rate and blood drug concentration, which utilizes the Unit Impulse Response (UIR) function for this purpose. By using intravenous administration as the input for the unit impulse response, the influence of drug absorption can be eliminated. The obtained UIR function will be utilized for the deconvolution of pharmacokinetic data to obtain the curve of cumulative drug absorption over time [50]. (8) Y(t)=A×exp[Alpha×(t×Ka−tlag)] in which Y(t) is unit impulse response, A is the coefficient value, Alpha is the exponential value, Ka is the absorption rate constant, tlag is the lag time.

[5] = Solubility of Q-markers in dissolution media, dose number D0; details: for solubility at 24 h: thermodynamic from solid
Method: The solubility of the compounds was determined at physiologically relevant pH values (0.1 M of HCl, pH 1.2; acetate buffer, pH 4.5; and phosphate buffer, pH 6.8) as those in dissolution medium, by adding excess compounds to specific medium, vortexing for 30 s, and shaking for 24 h at 37 °C and 120 rpm using a constant temperature shaker. The supernatant was then diluted with an appropriate amount of methanol, and the concentration of each compound was determined using the HPLC method described in Section 3.2. The solubility was evaluated using the dose (D0) values [48], which describe the relationship between solubility and maximum dose strength according to Equation (1). […] (1) D0=M0/V0/CS
M0 was the highest dose of each component under single administration, it should be noted that since there is no sense of the maximum oral dose for the ingredients in herbal preparation, the content of each component in a single dose of the preparation is taken as the maximum administered dose.

[6] = 0.1 M HCl, 37 °C, pH 1.2, simulated gastric fluid
[7] = acetate buffer, 37 °C, pH 4.5, aqueous buffer
[8] = phosphate buffer, 37 °C, pH 6.8, aqueous buffer
[9] = D0 = M0/V0/Cs, V0 = 250 mL, content of a single dose of YZTs

Papp at 120 min [3] [×10⁻⁶ cm/s]	UIR parameter A1, Estimate [4] [ng/mL]	UIR parameter Ka, Estimate [4] [h⁻¹]	UIR parameter Tlag, Estimate [4] [h]	UIR parameter alpha1, Estimate [4] [h⁻¹]	solubility at 24 h [5, 6] [µg/mL]	solubility at 24 h [5, 7] [µg/mL]	solubility at 24 h [5, 8] [µg/mL]	solubility at 24 h ([5]; water) [µg/mL]	Best-fitted dissolution model, Functions ([1]; FaSSIF-V2)	Relative content ([2]; 1.25 ng/mL, 6℃-6h) [%]	Relative content ([2]; 1.25 ng/mL, 20℃-24h) [%]	Relative content ([2]; 1.25 ng/mL, Freeze-thaw thrice) [%]	Relative content ([2]; 5 ng/mL, 6℃-6h) [%]	Relative content ([2]; 5 ng/mL, 20℃-24h) [%]	Relative content ([2]; 5 ng/mL, Freeze-thaw thrice) [%]	Relative content ([2]; 20 ng/mL, 6℃-6h) [%]	Molecule	Best-fitted dissolution model, Functions ([1]; 0.1 M HCl)	Best-fitted dissolution model, Functions ([1]; Acetate buffer)	Best-fitted dissolution model, Functions ([1]; Phosphate buffer)	further results
8.95	0.02	2.23	0.45	1.18	2660 ± 56 (≈ 7960 µM)	1290 ± 87.4 (≈ 3860 µM)	7.63 ± 1.27 (≈ 22.8 µM)	35.9 ± 5.85 (≈ 107 µM)	–	–	–	–	–	–	–	–	COc1c2ccoc2c(OC[C@@H](O)C(C)(C)O)c2oc(=O)ccc12 [Byakangelicin, byakangelicin]	–	–	–	released ([1]; from YZTs, all other dissolution media than simulated gastric fluid and 0.1 M HCl, paddle 75 rpm): less than 40%; Relative content ([2]; 37.5 ng/mL, 6℃-6h): 90.02%; Relative content ([2]; 37.5 ng/mL, 20℃-24h): 93.00%; Relative content ([2]; 37.5 ng/mL, Freeze-thaw thrice): 92.93%; Relative content ([2]; 150 ng/mL, 6℃-6h): 93.99%; Relative content ([2]; 150 ng/mL, 20℃-24h): 93.39%; Relative content ([2]; 150 ng/mL, Freeze-thaw thrice): 93.32%; Relative content ([2]; 600 ng/mL, 6℃-6h): 88.54%; Relative content ([2]; 600 ng/mL, 20℃-24h): 89.73%; Relative content ([2]; 600 ng/mL, Freeze-thaw thrice): 89.66%
3.76	–	–	–	–	655 ± 43.3 (≈ 1840 µM)	2670 ± 539 (≈ 7500 µM)	19.7 ± 1.87 (≈ 55.4 µM)	18.9 ± 1.57 (≈ 53.1 µM)	y(t) = 0.38 × (1 − exp[−(t/3.48)^1.91])	94.31	100.16	100.09	99.79	102.60	102.53	97.35	COc1cc2c(cc1OC)[C@@H]1Cc3ccc(OC)c(OC)c3CN1CC2 [Tetrahydropalmatine, tetrahydropalmatine]	–	–	y(t) = 0.30 × (1 − exp[−(t/2.29)^2.34])	Relative content ([2]; 20 ng/mL, 20℃-24h): 100.19%; Relative content ([2]; 20 ng/mL, Freeze-thaw thrice): 100.12%

Second part, the molecule before the results:

Molecule	Papp at 120 min [3] [×10⁻⁶ cm/s]	UIR parameter A1, Estimate [4] [ng/mL]	UIR parameter Ka, Estimate [4] [h⁻¹]	UIR parameter Tlag, Estimate [4] [h]	UIR parameter alpha1, Estimate [4] [h⁻¹]	solubility at 24 h [5, 6] [µg/mL]	solubility at 24 h [5, 7] [µg/mL]	solubility at 24 h [5, 8] [µg/mL]	solubility at 24 h ([5]; water) [µg/mL]	Best-fitted dissolution model, Functions ([1]; FaSSIF-V2)	Relative content ([2]; 1.25 ng/mL, 6℃-6h) [%]	Relative content ([2]; 1.25 ng/mL, 20℃-24h) [%]	Relative content ([2]; 1.25 ng/mL, Freeze-thaw thrice) [%]	Relative content ([2]; 5 ng/mL, 6℃-6h) [%]	Relative content ([2]; 5 ng/mL, 20℃-24h) [%]	Relative content ([2]; 5 ng/mL, Freeze-thaw thrice) [%]	Relative content ([2]; 20 ng/mL, 6℃-6h) [%]	Best-fitted dissolution model, Functions ([1]; 0.1 M HCl)	Best-fitted dissolution model, Functions ([1]; Acetate buffer)	Best-fitted dissolution model, Functions ([1]; Phosphate buffer)	further results
COc1cc2c(cc1OC)[C@H]1[C@@H](C)c3ccc(OC)c(OC)c3CN1CC2 [Corydaline, corydaline]	3.94	0.05	1.46	0.44	1.42	> 2380	> 2380	2380 ± 348 (≈ 6460 µM)	5.03 ± 0.85 (≈ 13.6 µM)	y(t) = 0.15 × (1 − exp[−(t/3.14)^1.77])	98.22	98.02	97.95	93.89	102.35	102.28	107.01	y(t) = 0.79 × (1 − exp[−(t/1.06)^2.00])	y(t) = 0.71 × (1 − exp[−(t/1.23)^2.04])	y(t) = 0.25 × (1 − exp[−(t/1.94)^2.82])	Relative content ([2]; 20 ng/mL, 20℃-24h): 100.80%; Relative content ([2]; 20 ng/mL, Freeze-thaw thrice): 100.73%
COc1ccc2c(c1OC)CN(C)CCc1cc3c(cc1C(=O)C2)OCO3 [α-allocryptopine]	13.4	0	5.65	0.67	1.13	48.7 ± 4.08 (≈ 132 µM)	45.8 ± 2.56 (≈ 124 µM)	44.7 ± 2.17 (≈ 121 µM)	2380 ± 521 (≈ 6430 µM)	–	–	–	–	–	–	–	–	–	y(t) = 0.86 × (1 − exp[−(t/1.26)^1.97])	y(t) = 0.60 × (1 − exp[−(t/1.29)^1.78])	released within 6 h ([1]; from YZTs, phosphate buffer and artificial intestinal fluid, paddle 75 rpm): less than 60%; Relative content ([2]; 0.2 ng/mL, 6℃-6h): 91.78%; Relative content ([2]; 0.2 ng/mL, 20℃-24h): 100.07%; Relative content ([2]; 0.2 ng/mL, Freeze-thaw thrice): 100.00%; Relative content ([2]; 0.5 ng/mL, 6℃-6h): 100.95%; Relative content ([2]; 0.5 ng/mL, 20℃-24h): 101.06%; Relative content ([2]; 0.5 ng/mL, Freeze-thaw thrice): 100.99%; Relative content ([2]; 3.2 ng/mL, 6℃-6h): 107.49%; Relative content ([2]; 3.2 ng/mL, 20℃-24h): 98.70%; Relative content ([2]; 3.2 ng/mL, Freeze-thaw thrice): 98.63%; D0, 0.1 M HCl [5, 9]: 0.5441 and <1; D0, Acetate Buffer [5, 9]: 0.5786 and <1; D0, Phosphate Buffer [5, 9]: 0.5928 and <1
protopine	–	–	–	–	–	–	–	–	–	–	–	–	–	–	–	–	–	y(t) = 0.70 × (1 − exp[−(t/1.10)^2.06])	–	y(t) = 0.62 × (1 − exp[−(t/1.50)^1.63])	Best-fitted dissolution model, Functions ([1]; FaSSGF): y(t) = 0.82 × (1 − exp[−t^1.01]); Relative content ([2]; 0.2 ng/mL, 6℃-6h): 99.33%; Relative content ([2]; 0.2 ng/mL, 20℃-24h): 96.07%; Relative content ([2]; 0.2 ng/mL, Freeze-thaw thrice): 96.00%; Relative content ([2]; 0.5 ng/mL, 6℃-6h): 93.89%; Relative content ([2]; 0.5 ng/mL, 20℃-24h): 100.60%; Relative content ([2]; 0.5 ng/mL, Freeze-thaw thrice): 100.53%; Relative content ([2]; 3.2 ng/mL, 6℃-6h): 103.43%; Relative content ([2]; 3.2 ng/mL, 20℃-24h): 101.63%; Relative content ([2]; 3.2 ng/mL, Freeze-thaw thrice): 101.56%
